Measurements taken from ChEMBL document CHEMBL3813647, “Discovery of an Orally Active and Liver-Targeted Prodrug of 5-Fluoro-2'-Deoxyuridine for the Treatment of Hepatocellular Carcinoma” (J Med Chem, 2016).

Assays:
[1] = tested on: Liver; experiment: Drug uptake in Sprague-Dawley rat liver treated with (S)-Isopropyl 2-(((R)-(((2R,3S,5R)-5-(5-fluoro-2,4-dioxo-3,4-dihydropyrimidin-1(2H)-yl)-3-hydroxytetrahydrofuran-2-yl)methoxy)((2-methylbenzyl)oxy)phosphoryl)amino)propanoate; type: ADME, tissue-based; settings: in vivo
[2] = tested on: Plasma; experiment: Drug uptake in Sprague-Dawley rat plasma treated with (S)-Isopropyl 2-(((R)-(((2R,3S,5R)-5-(5-fluoro-2,4-dioxo-3,4-dihydropyrimidin-1(2H)-yl)-3-hydroxytetrahydrofuran-2-yl)methoxy)((2-methylbenzyl)oxy)phosphoryl)amino)propanoate; type: ADME, cell-free

Question: For `Cc1ccccc1C(=O)NCC(=O)O`, which Drug uptake [1] is on record?
Answer: metabolite_detected

Question: What about the Drug uptake [2] of the same molecule?
Answer: metabolite_detected
